One data set deals with NCI-H358 cells. Briefly: Cell proliferation inhibition test (CCK-8). The settings on record: NCI-H358 human non-small cell lung cancer cells, 168 h, read-out: NIH358 cell proliferation inhibition IC50. It is filed as cell-based. The procedure: Test compounds: The compounds prepared in examples and comparative example of the present disclosure was tested. Each compound was formulated with DMSO into 20 mM. The concentrations of the compounds acting on NCI-H358 cells were 100 μM, 25 μM, 6.25 μM, 1.56 μM, 0.391 μM, 0.098 μM, 0.024 μM, 0.006 μM, 0.0015 μM, and 0.00038 μM successively.
Human non-small cell lung cancer cells NCI-H358 were purchased from the American Type Culture Collection (ATCC).
Reagents: The CCK-8 proliferation inhibition detection kit was purchased from Jiangsu KeyGEN BioTECH Co., Ltd. The CKX41 inverted microscope was purchased from Olympus, Japan. The multi-mode microplate reader was purchased from Molecular Devices, USA. The cell culture incubator was purchased from Thermo, USA.
Cell recovery: A NCI-H358 cell cryogenic vial was taken out from a liquid nitrogen tank, placed in water bath at 37° C., and shaked gently to allow it to thaw. The thawed cryogenic vial was disinfected with alcohol cotton, and opened to aspirate the cell fluid into a centrifuge tube. To the centrifuge tube, 1 mL of serum-containing complete medium was added and well-mixed. The centrifuge tube was placed into a centrifuge, for centrifugation at 1000 rpm for 5 min. Then the supernatant was discarded, and complete medium was added to completely dissipate and resuspend the cells through repeated pipetting. The cells were seeded in petri dishes at appropriate concentrations and cultured in a CO2 incubator at 37° C., with 5% CO2, 95% humidified air.
Cell passage: After the cells grew to about 80-90% confluence, the original culture medium (1640 culture medium+10% FBS+1% penicillin-streptomycin+1 mM sodium pyruvate) was discarded, and 1 mL of PBS was added to wash away the residual medium and then discarded. 1 mL of trypsin digestion solution was added to digest for 1-2 min. […] The cell suspension was collected by gently pipetting, and centrifuged at 1000 rpm for 5 min. After discarding the supernatant, the cells was resuspended in complete medium, seeded in petri dishes at the required density, and then cultured in a CO2 incubator at 37° C., with 5% CO2, 95% humidified air. Depending on cell growth, the culture medium was changed or passaged every 2-3 days.
After NCI-H358 cell passage, the cells were resuspended in fresh culture medium (1640 culture medium+3% FBS+1% penicillin-streptomycin+1 mM sodium pyruvate), and counted. The cells were seeded into a 96-well culture plate at a density of 1.5×10^4 cells/mL, with each well added 100 μL thereto (ie, 1.5×10^3 cells/well). After 24 h, 100 μL of fresh culture medium containing different drug concentrations (2×) was added to the old culture medium. The final concentrations of the compounds were 100 μM, 25 μM, 6.25 μM, 1.56 μM, 0.391 μM, 0.098 μM, 0.024 μM, 0.006 μM, 0.0015 μM, and 0.00038 μM, with each concentration group set two replicate wells. The cells were […] in the incubator again for 168 h. The culture medium in wells was discarded as thoroughly as possible, and 100 μL of culture medium containing CCK-8 (CCK-8:culture medium=1:10) was added. After a certain time of culture in the incubator, the 96-well plate was taken out of the incubator, and allowed to equilibrate at room temperature for 5 min. The absorbance (OD value) at 450 nm was detected in a multi-mode plate reader, and the cell proliferation inhibition rate was calculated. The calculation formula was Inhibition (%)=100−(ODexperiment well−ODblank well)/(ODsolvent control well−ODblank well)×100. According to different drug concentrations and their corresponding inhibition rates, IC50 curves were plotted using GraghPad 5.0 software, to analyze the data and to obtain final IC50.

A short description of data set [1]: Pharmacokinetic experiment in mice. To be noted: mouse, plasma, male BALB/c mice; for bioavailability: I.G. 10 mg/kg vs IV 1 mg/kg, read-out: bioavailability F; for AUC(0-inf) / AUC(0-t) / Cmax / half-life: I.G., 10 mg/kg. It is filed as in vivo. The procedure:
Compounds: The compounds of the present disclosure prepared in the above examples were tested. The drug vehicle was Captisol/50 mM sodium acetate with pH 4.6 (10%/90%, w/v %). Oral drugs were formulated into a 0.5 mg/mL clear solution. Intravenous drug were formulated into a 0.1 mg/mL clear solution.
Animals: Male BALB/c mice, SPF grade, were purchased from Shanghai SIPPR-Bk Lab Animal Co., Ltd, with a weight of 18-20 g, and adapted for 2-3 days before experiments.
Instrument: API4500-type Triple Quadrupole LC/MS System, from AB, United States, equipped with electrospray ion source (ESI) and dual pumps LC-30AD; SIL-30AC autosampler; CTO-30AC column oven; DGU-20A3R degasser; AnalystQSA01.01 chromatography workstation; Milli-Q ultrapure water device (Millipore Inc); QilinbeierVortex-5 shaker; HITACHI CF16RX II desktop high-speed freezing centrifuge.
(1) There were 3 mice per group. The compounds of the examples of the present disclosure were given by intragastric administration (I.G.) at 10 mg/kg, or the compounds of the examples of the present disclosure were given by intravenous (IV) administration at 1 mg/kg.
(2) At 5 min, 15 min, 30 min, 1 h, 2 h, 6 h, 10 h, and 24 h after the intragastric administration or intravenous administration, blood was collected from the orbital venous plexus in heparinized EP tubes (0.6 ML), and centrifuged at 8000 rpm/min for 5 min. The upper plasma was taken, frozen at −20° C. and analyzed by LC-MS/MS.
(3) Plasma drug concentration-time curves were plotted according to blood drug concentration data obtained from the above-mentioned step. Pharmacokinetic parameters were calculated by using WinNonlin software.

Read-outs that look alike come from different tables or passages of the source.

For the compound `Cn1c(N2CCC3(CC2)Cc2ccccc2[C@H]3N)nc(N)c(Sc2ccc(N)nc2Cl)c1=O` [Example 4, (S)-6-amino-2-(1-amino-1,3-dihydrospiro[indene-2,4′-piperidine]-1′-yl)-3-methyl-5-((6-amino-2-chloropyridin-3-yl)thio)pyrimidin-4(3H)-one], the IC50 with NCI-H358 cells worked out at 5.6 nM.
`Cn1c(N2CCC3(CC2)Cc2ccccc2[C@H]3N)nc(N)c(Sc2ccnc(N)c2Cl)c1=O` [Example 8]: the IC50 with NCI-H358 cells stood at 3.3 nM.
In the case of `Nc1nccc(Sc2cnc(N3CCC4(CC3)Oc3ccccc3[C@H]4N)n3ccnc23)c1F` [Example 47, (R)-1′-(8-(((2-amino-3-fluoropyridin-4-yl)thio)imidazo[1,2-c]pyrimidin-5-yl)-3H-spiro[benzofuran-2,4′-piperidin]]-3-amine], the IC50 in the data set with NCI-H358 cells is 16.7 nM.
With `Cc1nc(N2CCC3(CC2)Oc2ccccc2[C@H]3N)n2ccnc2c1-c1cccc(Cl)c1Cl` [Example 48, (R)-1′-(8-(2,3-dichlorophenyl)-7-methylimidazo[1,2-c]pyrimidin-5-yl)-3H-spiro[benzofuran-2,4′-piperidine]-3-amine], in the data set on NCI-H358 cells, the IC50 was 12 nM. In addition, in data set [1] (po), the bioavailability was found to be 81.2%, the AUC(0-inf) amounted to 37000 ng·h/mL, the AUC(0-t) amounted to 24200 ng·h/mL and the peak concentration (Cmax) worked out at 1890 ng/mL. Besides, the half-life in data set [1] (po) is 15.6 h.
In the case of `Cn1c(N2CCC3(CC2)Oc2ccccc2[C@H]3N)nc(N)c(Sc2cccnc2C(F)(F)F)c1=O` [Example 53, (R)-6-amino-2-(3-amino-3H-spiro[benzofuran-2,4′-piperidine]-1′-yl)-3-methyl-5-((2-(trifluoromethyl)pyridin-3-yl)thio)pyrimidin-4(3H)-one], the IC50 in the data set on NCI-H358 cells was 4.9 nM. Besides, in data set [1] (po), the bioavailability came to 74.3%, the total exposure AUC(0-inf) was determined as 7410 ng·h/mL, the exposure AUC(0-t) is 6520 ng·h/mL and the Cmax came to 1390 ng/mL. Besides, the half-life in data set [1] (po) is 3 h.
Turning to `Cn1c(N2CCC3(CC2)Cc2ccccc2[C@H]3N)nc(N)c(Sc2cccc(C#N)c2Cl)c1=O` [Example 9, (S)-3-((4-amino-2-(1-amino-1,3-dihydrospiro[indene-2,4′-piperidine]-1′-yl)-1-methyl-6-oxo-1,6-dihydropyrimidin-5-yl)thio)-2-chlorobenzonitrile], the IC50 with NCI-H358 cells came to 1.5 nM.
In the case of `Cn1c(N2CCC3(CC2)Oc2ccccc2[C@H]3N)nc2n[nH]c(-c3ccnc(NC4CC4)c3Cl)c2c1=O` [Example 51], the IC50 in the data set on NCI-H358 cells came out at 6 nM.
In the case of `Cc1ncccc1Sc1c(N)nc(N2CCC3(CC2)Cc2ccccc2[C@H]3N)n(C)c1=O` [Example 6, (S)-6-amino-2-(1-amino-1,3-dihydrospiro[indene-2,4′-piperidine]-1′-yl)-3-methyl-5-((2-methylpyridin-3-yl)thio)pyrimidin-4(3H)-one], in the data set with NCI-H358 cells, the IC50 stood at 2.8 nM.
`Nc1nccc(Sc2cnc(N3CCC4(CC3)Cc3ncccc3[C@H]4N)n3ccnc23)c1Cl` [Example 46, (S)-1′-(8-((2-amino-3-chloropyridin-4-yl)thio)imidazo[1,2-c]pyrimidin-5-yl)-5,7-dihydrospiro[cyclopenta[b]pyridine-6,4′-piperidine]-5-amine]: the IC50 in the data set on NCI-H358 cells was determined as 8.5 nM.
As to `Nc1nccc(Sc2cnc(N3CCC4(CC3)Oc3ccccc3[C@H]4N)n3ccnc23)c1Cl` [Example 45], in the data set on NCI-H358 cells, the IC50 stood at 3.9 nM. In data set [1] (po), the bioavailability was determined as 78.3%, the AUC(0-inf) was 21600 ng·h/mL, the AUC(0-t) was 19400 ng·h/mL and the concentration peaked (Cmax) at 1590 ng/mL. This compound also gave a half-life in data set [1] (po) of 7.3 h.
With `COc1cccc(-c2c(C)nc(N3CCC4(CC3)Oc3ccccc3[C@H]4N)n3ccnc23)c1Cl` [Example 49, (R)-1′-(8-(2-chloro-3-methoxyphenyl)-7-methylimidazo[1,2-c]pyrimidin-5-yl)-3H-spiro[benzofuran-2,4′-piperidine]-3-amine], the IC50 in the data set with NCI-H358 cells came out at 13.3 nM.
For `Nc1nc(N2CCC3(CC2)Oc2ccccc2[C@H]3N)cnc1Sc1ccnc(N)c1Cl` [Compound A], the IC50 in the data set on NCI-H358 cells came out at 18.3 nM. Further, the bioavailability in data set [1] (oral) came out at 51.2%.
Take `Cn1c(N2CCC3(CC2)Cc2ccccc2[C@H]3N)nc(N)c(Sc2cccnc2C(F)(F)F)c1=O` [Example 1, (S)-6-amino-2-(1-amino-1,3-dihydrospiro[indene-2,4′-piperidin]-1′-yl)-3-methyl-5-((2-(trifluoromethyl)pyridin-3-yl)thio)pyrimidin-4(3H)-one]: the IC50 in the data set with NCI-H358 cells amounted to 1.6 nM.

What is called bioavailability is dose-corrected exposure relative to a reference, in per cent. For orientation: AUC(0-inf) means the area under the concentration-time curve extrapolated to infinity. A higher AUC(0-inf) goes with more exposure. As usually defined, the AUC(0-t) is the area under the concentration-time curve up to a stated or last time point. One may read the Cmax as the peak of the concentration-time curve. A word on the half-life: it is the time needed for the level to fall by half in the phase considered. A lower half-life goes with fast loss.
